Patent publication US11407825B2, “NaPi2b-targeted polymer antibody-drug conjugates and methods of use thereof” (Mersana Therapeutics, Inc., priority 2018, dated 2022)
Square brackets hold non-standard residues; d marks the D form. Peptide text beside a SMILES is read from it. * marks the point of attachment. Dolaproine = CO[C@@H]([C@@H]1CCCN1)[C@@H](C)C(=O)O; Dil = CC[C@H](C)[C@H](NC)[C@@H](CC(=O)O)OC; NMe2Val = CC(C)[C@@H](C(=O)*)N(C)C; NH(3-hydroxypropyl) = OCCCN*

Test: Plasma PK profile in patients dosed with XMT-1536
Assay type: in vivo, human
Settings: after XMT-1536
Protocol: The PK profile of the active ingredient of XMT-1536, its release product and selected metabolites are determined for each patient by non-compartmental analysis using standard PK software (e.g., Phoenix WinNonlin). PK parameters per patient include time of maximum observed concentration (tmax), maximum concentration (Cmax), and area under the concentration curve for the last measurable concentration (AUC0-last). When the terminal elimination phase is identified, additional parameters such as elimination half-life, clearance, and volume of distribution are determined.
The plasma PK profile for the analytes (total antibody; conjugated drug (AF-HPA); free drug (AF-HPA) and the drug metabolite auristatin F (AF)) was determined in blood samples from 30 patients (3 mg/m^2, n=1; 6 mg/m^2, n=1; 12 mg/m^2, n=7; 20 mg/m^2, n=15; 30 mg/m^2, n=5; 40 mg/m^2, n=1). […] The PK characteristics is consistent with that reported for other approved antibody-drug conjugates or those currently in clinical development.

Compound: CC[C@H](C)[C@@H]([C@@H](CC(=O)N1CCC[C@H]1[C@H](OC)[C@@H](C)C(=O)N[C@@H](Cc1ccccc1)C(=O)O)OC)N(C)C(=O)[C@@H](NC(=O)[C@H](C(C)C)N(C)C)C(C)C [AF, auristatin F] (NMe2Val-V[Dil][Dolaproine]F-OH)
- accumulation after administration of multiple doses: no accumulation
- systemic exposure compared to that of the conjugated drug: low systemic expose

Compound: CC[C@H](C)[C@@H]([C@@H](CC(=O)N1CCC[C@H]1[C@H](OC)[C@@H](C)C(=O)N[C@@H](Cc1ccccc1)C(=O)NCCCO)OC)N(C)C(=O)[C@@H](NC(=O)[C@H](C(C)C)N(C)C)C(C)C [AF-HPA, Auristatin F-hydroxypropyl amide] (NMe2Val-V[Dil][Dolaproine]F-{NH(3-hydroxypropyl)})
- accumulation after administration of multiple doses: no accumulation
- systemic exposure compared to that of the conjugated drug: low systemic expose
